Some test systems named below: COLO 205 colon; SK-OV-3 ovarian; CCRF-CEM leukemia; LOX IMVI melanoma; NCI-H226 lung; CAKI-1 renal; NCI-H522 lung; SN12C renal; SK-MEL-28 melanoma; MDA-MB-231 breast.
Holding throughout (assay): DTP human tumour cell line panel, 48 h

Where “and” joins values, the source holds several entries; their conditions need not be identical. Equal entries are not always repeated.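 1) Cells in 96-well plates. 2) Compound, 48 h, 5 concentrations. 3) Linear interpolation between surrounding doses. 4) Unreached endpoint = highest concentration. At the GI50, growth is halved. TGI is the concentration that stops growth completely.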

Consider `O=C1N(c2ccccc2)N=C2c3ccncc3C3=NN(c4ccccc4)C(=O)C123` (stereo not drawn), for which the TGI in the experiment with COLO 205 colon was 6.12 µM; in the experiment on SK-OV-3 ovarian, greater than 100 µM; in the experiment with CCRF-CEM leukemia it was greater than 100 µM; with LOX IMVI melanoma, greater than 100 µM; with NCI-H226 lung, greater than 100 µM; in the experiment with CAKI-1 renal, greater than 100 µM. The TGI in the experiment with NCI-H522 lung, in the experiment on SN12C renal, with SK-MEL-28 melanoma and in the experiment on MDA-MB-231 breast was greater than 100 µM in each case.
As for `COc1ccc(/C=C/C(=O)N[C@@H]2C(=O)N3[C@@H]2SC(C)(C)[C@@H]3C(=O)O)cc1OC`, the TGI in the experiment with COLO 205 colon, with SK-OV-3 ovarian, in the experiment with CCRF-CEM leukemia, in the experiment with LOX IMVI melanoma, in the experiment on NCI-H226 lung and in the experiment with CAKI-1 renal was greater than 100 µM each time. Further, the TGI in the experiment on NCI-H522 lung, in the experiment with SN12C renal, in the experiment on SK-MEL-28 melanoma and in the experiment with MDA-MB-231 breast was greater than 100 µM in each case.
On to `CNC(=S)c1nnsc1N`, for which the TGI with COLO 205 colon, in the experiment on SK-OV-3 ovarian, in the experiment on CCRF-CEM leukemia, with LOX IMVI melanoma, in the experiment with NCI-H226 lung and in the experiment on CAKI-1 renal was greater than 100 µM in each case. In addition, the TGI in the experiment with NCI-H522 lung, in the experiment on SN12C renal, with SK-MEL-28 melanoma and in the experiment with MDA-MB-231 breast was greater than 100 µM each time.
For `COc1ccc(-c2c3c(n(C4OC(COC(C)=O)C(OC(C)=O)C(OC(C)=O)C4OC(C)=O)c(=S)c2C#N)CCCC3)cc1` (stereo not drawn), the TGI in the experiment on COLO 205 colon was greater than 100 µM; with SK-OV-3 ovarian, greater than 100 µM; in the experiment with CCRF-CEM leukemia it was greater than 100 µM; in the experiment with LOX IMVI melanoma it was greater than 100 µM; in the experiment with NCI-H226 lung, greater than 100 µM; in the experiment with CAKI-1 renal, 79.9 µM. In addition, the TGI with NCI-H522 lung, in the experiment with SN12C renal, in the experiment with SK-MEL-28 melanoma and with MDA-MB-231 breast was greater than 100 µM each time.
Regarding `CCN(CC)CCCNc1c2cc(OC)ccc2nc2cccc([N+](=O)[O-])c12`, the TGI with COLO 205 colon is 0.102 µM; in the experiment on SK-OV-3 ovarian it was 0.789 µM; in the experiment on CCRF-CEM leukemia, 0.582 µM; in the experiment with LOX IMVI melanoma, 0.196 µM; in the experiment on NCI-H226 lung, 0.51 µM; with CAKI-1 renal, 0.673 µM. In addition, the TGI was found to be 0.0284 µM in the experiment with NCI-H522 lung, 0.402 µM in the experiment on SN12C renal, 0.534 µM with SK-MEL-28 melanoma and 0.319 µM in the experiment with MDA-MB-231 breast.
With `COc1ccc(-c2c(C#N)c(N)n(C3OC(COC(C)=O)C(OC(C)=O)C(OC(C)=O)C3OC(C)=O)c(=S)c2C#N)cc1` (stereo not drawn), the GI50 was > 100 µM and 21.2 µM in the experiment with COLO 205 colon; > 100 µM and 46.5 µM in the experiment with CCRF-CEM leukemia; 91.5 µM and 18.6 µM in the experiment with SK-MEL-28 melanoma. For the same compound, the TGI in the experiment with COLO 205 colon is > 100 µM and 43.2 µM; with SK-OV-3 ovarian it was 78.1 µM and 85 µM; in the experiment on CCRF-CEM leukemia it was greater than 100 µM; in the experiment with LOX IMVI melanoma it was greater than 100 µM; in the experiment with NCI-H226 lung, greater than 100 µM; with CAKI-1 renal, greater than 100 µM. For the same compound, the TGI in the experiment with NCI-H522 lung was > 100 µM and 52.6 µM; with SN12C renal, greater than 100 µM; in the experiment on SK-MEL-28 melanoma, > 100 µM and 32.7 µM; in the experiment on MDA-MB-231 breast it was > 100 µM and 71.2 µM.
With `Cc1cccc(C)c1NC(=O)/C(CC(=O)CC(c1ccccc1)c1c(O)c2ccccc2oc1=O)=N/O` (stereo not drawn), the TGI in the experiment on COLO 205 colon, in the experiment on SK-OV-3 ovarian, in the experiment with CCRF-CEM leukemia, in the experiment on LOX IMVI melanoma, in the experiment with NCI-H226 lung and in the experiment on CAKI-1 renal was greater than 100 µM each time. The TGI in the experiment with NCI-H522 lung, in the experiment on SN12C renal, with SK-MEL-28 melanoma and in the experiment with MDA-MB-231 breast was greater than 100 µM throughout.
Consider `O=C1CCCC1C(O)(C(F)(F)Cl)C(F)(F)Cl` (stereo not drawn), for which the TGI in the experiment with COLO 205 colon, with SK-OV-3 ovarian, with CCRF-CEM leukemia, with LOX IMVI melanoma, in the experiment on NCI-H226 lung and in the experiment on CAKI-1 renal was greater than 10 µM throughout. In addition, the TGI in the experiment with NCI-H522 lung, in the experiment on SN12C renal, with SK-MEL-28 melanoma and in the experiment on MDA-MB-231 breast was greater than 10 µM each time.
As to `CCOC(=O)CCNC(=O)c1cc(C)cc2c1Oc1c(cc(C)cc1C(=O)NCCC(=O)OCC)S2`, the TGI with COLO 205 colon, with SK-OV-3 ovarian, with CCRF-CEM leukemia, in the experiment with LOX IMVI melanoma, in the experiment on NCI-H226 lung and with CAKI-1 renal was greater than 100 µM throughout. Besides, the TGI in the experiment on NCI-H522 lung, in the experiment on SN12C renal, with SK-MEL-28 melanoma and in the experiment on MDA-MB-231 breast was greater than 100 µM each time.
Regarding `Cc1cc(NS(=O)(=O)c2ccc(N=Nc3c(Nc4ccccc4)nn(-c4ccc(S(=O)(=O)Nc5ccncn5)cc4)c3C)cc2)no1`, the TGI with COLO 205 colon, in the experiment with SK-OV-3 ovarian, in the experiment on CCRF-CEM leukemia, in the experiment with LOX IMVI melanoma, with NCI-H226 lung and in the experiment on CAKI-1 renal was greater than 100 µM each time. The TGI with NCI-H522 lung, in the experiment on SN12C renal, with SK-MEL-28 melanoma and in the experiment on MDA-MB-231 breast was greater than 100 µM throughout.
Consider `Cc1nc2ccccc2n1Cc1ccc(NC(=S)NC2CCCCC2)cc1`, for which the TGI in the experiment on COLO 205 colon, with SK-OV-3 ovarian, in the experiment on CCRF-CEM leukemia, in the experiment on LOX IMVI melanoma, in the experiment on NCI-H226 lung and with CAKI-1 renal was greater than 100 µM each time. Also, the TGI in the experiment with NCI-H522 lung, in the experiment with SN12C renal, with SK-MEL-28 melanoma and in the experiment on MDA-MB-231 breast was greater than 100 µM each time.
With `N#C[C@H](c1nc2ccccc2[nH]1)c1nc2ccccc2nc1Cl`, the TGI was 40 µM in the experiment on COLO 205 colon; greater than 100 µM in the experiment on SK-OV-3 ovarian; 10.9 µM with CCRF-CEM leukemia; 29.3 µM in the experiment with LOX IMVI melanoma; 64.7 µM in the experiment on NCI-H226 lung; 15.3 µM with CAKI-1 renal. Also, the TGI is 16.2 µM in the experiment with NCI-H522 lung, 30.9 µM with SN12C renal, 49 µM in the experiment on SK-MEL-28 melanoma and 35.3 µM with MDA-MB-231 breast.
For `COc1ccc2oc(=O)c(-c3nc4ccccc4s3)cc2c1`, the TGI with COLO 205 colon is greater than 100 µM; with SK-OV-3 ovarian, 36.5 µM; in the experiment with CCRF-CEM leukemia, greater than 75.6 µM; in the experiment on LOX IMVI melanoma, 49.5 µM; with NCI-H226 lung it was greater than 63.1 µM; in the experiment on CAKI-1 renal, greater than 51.8 µM. Also, the TGI is greater than 100 µM with NCI-H522 lung, greater than 100 µM with SN12C renal, greater than 100 µM in the experiment on SK-MEL-28 melanoma and 53.2 µM in the experiment on MDA-MB-231 breast.

Broadly, the TGI is the concentration giving total growth inhibition. A low value points to more potent growth arrest. By GI50 is commonly meant the concentration that inhibits growth by half.

The record behind these values is PubChem BioAssay (NCI).
